Data taken from patent publication US4322370A, “Polycyclic compounds” (Beecham Group Limited, priority 1975, dated 1982).

Experiments:
[1] = Reduction in food intake in hungry rats after oral administration (anorexic activity); type: in vivo; details: 10 mg/kg
Protocol: The useful anorexic activity of 4-(4-chlorophenyl)-2, 2-dimethyl-7-(2-dimethylaminoethoxy)-1-methylidene tetralin and 4-(4-chlorophenyl-1,2,2,-trimethyl-7-(2-dimethylaminoethoxy) tetralin were determined by the oral administration to hungry rats of the compound and measuring the reduction in their food intake. The results are as follows: […]

[2] = system: reserpine-induced hypothermia; assay: Reserpine Prevention test (prevention of reserpine-induced hypothermia in mice); type: in vivo; details: Mus musculus, read-out: Approximate Dose required mg/kg (dose at which compounds are active on the Reserpine Prevention Test in Mice)
Excerpt: The results given in Table 1 were obtained for compounds of the formula (XIII): [drawing 22]

[3] = Oral toxicity in mice (deaths, LD50); details: for Min Dose (mg/kg) at which deaths occurred: mice; for LD50: mouse, in vivo, po
in vivo = details: mouse, po

Row | Compound | reduction in food intake [1] [%] | minimal effective dose [2] [mg/kg] | Min Dose (mg/kg) at which deaths occurred [3] [mg/kg] | LD50 [3] [mg/kg] | LD50 (in vivo) [mg/kg]
1 | C=C1c2cc(OCCN(C)C)ccc2C(c2ccc(Cl)cc2)CC1(C)C (centres unmarked) [4-(4-Chlorophenyl)-2,2-dimethyl-7-(2-dimethylaminoethoxy)-1-methylidene tetralin] | 51 |  |  |  | 
2 | CC1c2cc(OCCN(C)C)ccc2C(c2ccc(Cl)cc2)CC1(C)C (centres unmarked) [CH2 CH3 CHCH3 Cl H, 4-(4-Chlorophenyl)-1,2,2-trimethyl-7-(2-dimethylaminoethoxy)tetralin] | 35 | 3 | > 100 | > 100 | 
3 | CN(C)CCOc1ccc2c(c1)C(Cl)C(C)(C)CC2c1ccc(Cl)cc1 (centres unmarked) [CH2 CH3 CHCl Cl H, 1-Chloro-4-(4-chlorophenyl)-2,2-dimethyl-7-(2-dimethylaminoethoxy)tetralin] |  | 0.1 | 30 | 33 | 
4 | CN(C)CCOc1ccc2c(c1)C(O)C(C)(C)CC2c1ccc(Cl)cc1 (centres unmarked) [CH2 CH3 CHOH Cl H, 4-(4-Chlorophenyl)-1-hydroxy-2,2-dimethyl-7-(2-dimethylaminoethoxy)tetralin] |  | 0.1 | 3 |  | 11
5 | CN(C)CCOc1ccc2c(c1)C(=O)C(C)(C)CC2c1ccc(Cl)c(Cl)c1 (centres unmarked) [CH2 CH3 CO Cl Cl, 4-(3,4-Dichlorophenyl)-2,2-dimethyl-7-(2-dimethylaminoethoxy)-1-tetralone] |  | 1 | 10 | 10 to 30 | 
6 | CN(C)CCOc1ccc2c(c1)C(=O)C(C)(C)CC2c1ccc(Cl)cc1 (centres unmarked) [CH2 CH3 CO Cl H, 4-(4-Chlorophenyl)-2,2-dimethyl-7-(2-dimethylaminoethoxy)-1-tetralone] |  | 0.03 | 10 | 55 | 
7 | CN(C)CCOc1ccc2c(c1)C(=O)C(C)(C)CC2c1cccc(C(F)(F)F)c1 (centres unmarked) [CH2 CH3 CO H CF3, 4-(3-Trifluoromethylphenyl)-2,2-dimethyl-7-(2-dimethylaminoethoxy)-1-tetralone] |  | 3 | > 100 | > 100 | 
8 | CNCC(O)COc1ccc2c(c1)C(=O)C(C)(C)CC2c1ccc(Cl)c(Cl)c1 (centres unmarked) [H CO Cl Cl, 4-(3,4-Dichlorophenyl)-7-(2-hydroxy-3-methylaminopropoxy)-2,2-dimethyl-1-tetralone] |  | 1 | > 100 | 100 | 
